Columns and labels:
Format in all cases: cell-based, human
A549 = experiment: MTT cell viability assay, A549; conditions: Homo sapiens, A549, 72 h, mean ± SD, n = 3
Protocol: (§1) All new tetrahydroquinoline derivatives were assessed for cytotoxicity on a broad panel of cancer and normal cell lines, using the MTT assay. The half-inhibitory growth inhibitory concentration (IC50) values of each compound were calculated after 72 h of treatment and presented in Table 1. […] In this assay, the IC50 value of 5-FU and ETP was recorded as a positive control.
(§2) Non-small cell lung cancer cells A549 (CCL-185), breast cancer cells MCF-7 ([…]), hepatocarcinoma cells HepG2 ([…]), normal kidney cells HEK293 (CRL-1573), and osteosarcoma cells U-2 OS (HTB-96) were obtained from the American Type Culture Collection. HCT-116 cell line was kindly provided by prof. Bert Vogelstein (Johns Hopkins University, Howard Hughes Medical Institute, USA). The obtained A549 and MCF-7 cells were cultured in RPMI-1640 medium, HepG2 cells in Minimum Essential Medium Eagle medium, HEK-293 cells in Dulbecco’s Modified Eagle’s medium, and U-2 OS and HCT-116 cells in McCoy’s […] medium. All culture media were supplemented with 10% fetal bovine serum, 2 mM L-glutamine, and antibiotics (penicillin 62.6 µg/ml and streptomycin 40 µg/ml; Sigma-Aldrich). Both cancer and normal cells were cultured at 37 °C under a humidified atmosphere with 5% or 10% CO2 and routinely screened for Mycoplasma contamination. All materials and reagents were obtained from Corning unless stated otherwise.
(§3) The cytotoxic effect of the synthesized compounds was assessed by the MTT (4,5-dimethylthiazol-2-yl-2,5-diphenyltetrazoliumbromide; Sigma-Aldrich) assay. Briefly, the cells were seeded into 96-well transparent flat-bottom plates and allowed to attach overnight. On the next day, the cells were treated with compounds in the range of 0–50 µM for 72 h. Dimethyl sulfoxide (DMSO; Merck) and 5-fluorouracil (5-FU; Sigma-Aldrich) were used as a reference. After exposure to the compounds, 20 μl of the MTT solution at a concentration of 4 mg/ml was added to each well, and the plates were incubated again for 2–3 h at 37 °C. Next, the media in the wells was replaced with 100 μl DMSO to solubilize the formazan crystals. The absorbance was measured at 540 nm using an ASYS UVM340 microplate reader (Biochrom Ltd.). The IC50 value of the compounds was calculated using GraphPad Prism 9 software, based on the curves plotted with survival as a function of dose, averaged from three independent experiments.

A549 cells [1] = experiment: Colony formation assay; conditions: A549, 24 h pretreatment, 9 days culture, vs DMSO-treated control
Protocol: HCT-116 and A549 cells were seeded into six-well plates at a density of 500 cells per well and allowed to attach overnight. On the next day, the cells were pretreated with compound 4a at different concentrations or with 1% v/v DMSO for 24 h. After incubation, the cells were washed and cultured for 9 days. Next, the cells were fixed with methanol for 20 min and stained with 0.5% crystal violet (Sigma-Aldrich). Finally, the plates were dried overnight and imaged using a UVITEC Cambridge imaging system. Quantification was performed with ImageJ software. The surviving fraction was calculated as previously described. Each experiment was repeated three times.

[2] = tested on: caspase-3/7 in A549 cells; experiment: Caspase-3/7 activation (flow cytometry); conditions: A549, IC50 concentration
Protocol: Apoptosis induction via both intrinsic and extrinsic pathways is mediated by caspase cascade events. Therefore, in this study, the ability of 4a to activate two effector caspases (caspase-3 and caspase-7) was evaluated by flow cytometry.
Cells were seeded in a 5-cm^2 dish at a density of 15 × 10^5 cells per dish and allowed to attach overnight at 37 °C. Then, compounds at IC50 concentrations were added to the medium. After 6, 24, and 48 h, the cells were harvested and washed with PBS. Subsequently, the cells were resuspended in the binding buffer and stained with Annexin V Alexa Fluor™ 488 conjugate (#A13201; Thermo Fisher Scientific) for the apoptosis assay and with CellEvent™ Caspase-3/7 Green Flow Cytometry Assay Kit (#C10427; Thermo Fisher Scientific) for the activation of caspase-3/7, as per the manufacturer’s instructions. After incubation, the samples were immediately analyzed using a Guava EasyCyte 8 cell sorter (Merck Millipore) and FlowJo software v10. Each experiment was repeated three times.

A549 cells [3] = experiment: Cell cycle progression (propidium iodide, flow cytometry); conditions: A549, IC50 concentration
Protocol: A549 and HCT-116 cells were incubated with the tested compounds at their IC50 concentrations for 24, 48, and 72 h. DMSO (1% v/v) was used as a reference (Sigma-Aldrich). After incubation, the cells were collected in trypsin, fixed with 75% ice-cold ethanol, and stored overnight at − 20 °C. Then, the cells were stained with 20 μg/ml propidium iodide (Sigma-Aldrich) and 50 μg/ml RNaseA (Thermo Fisher Scientific) in phosphate-buffered saline (PBS) for 30 min at room temperature (RT). The content of DNA in cells was determined by flow cytometry (Guava EasyCyte 8 cell sorter; Merck Millipore) using FlowJo software v10. Each experiment was repeated three times.

HEK293 = experiment: MTT cell viability assay, HEK293 normal kidney cells
Protocol: as §1, §2, §3

MCF-7 = experiment: MTT cell viability assay, MCF-7; conditions: Homo sapiens, MCF7, 72 h, mean ± SD, n = 3
Protocol: as §1, §2, §3

IC50 (A549): 11.3 ± 0.67 µM
IC50 (MCF-7): > 50 µM
SMILES: O=c1[nH]c2c(c(-c3ccccc3)c1Cc1cccc3ccccc13)CCCC2 [Compound 4a, 3-(1-naphthylmethyl)-4-phenyl-5,6,7,8-tetrahydro-1H-quinolin-2-one]
number of observed colonies (A549 cells [1]): significantly decreased
activation of caspase-3/7 ([2]; 24 and 48 h, vs vehicle): 3.9 ± 0.33 fold
increase in the activity of caspase-3/7 ([2]; 6 h): 2.32 ± 0.05 fold
fraction of cells at the G0/G1 phase (A549 cells [3]): time-dependent decrease
fraction of cells in sub-G0 phase (A549 cells [3]): concomitant increase
fraction of cells in G2 phase (A549 cells [3]; 24 h (DMSO 3.2%)): 15.5%
fraction of cells in G2 phase (A549 cells [3]; 48 h (DMSO 3.2%)): 33.8%
IC50 (HEK293; Homo sapiens, HEK293, MTT, 72 h, normal kidney cells, mean ± SD, n = 3): 49 ± 2.21 µM
suppressive effect on human normal HEK293 kidney cells (HEK293; tested concentrations, compared to A549 and HCT-116): almost no suppressive effect

— article PMC9646836, “Tetrahydroquinolinone derivatives exert antiproliferative effect on lung cancer cells through apoptosis induction” (Scientific Reports, 2022)
